In one series the test system is SGC-7901. The series can be described thus: MTT in vitro cytotoxicity assay, SGC-7901. In kind it is cell-based. The settings on record: Homo sapiens, 48 h. The protocol:
(§1) Roswell Park Memorial Institute Medium (RPMI-1640) was used to culture BEL-7402 and SGC-7901 cell lines; and A549, HeLa and LO2 cells were cultured in Dulbecco’s Modified Eagle’s Medium (DMEM) containing 10% fetal bovine serum (FBS). Cell passage experiments were performed with trypsin every 2 days to maintain exponential growth. All cells were cultured until they reached logarithmic growth phase, unless specifically noted.
(§2) The cytotoxicity test was carried out according to a method described in the literature. The cells were seeded into 96-well micro-assay culture plates and grown overnight in a 5% CO2 incubator at 37 °C. Then, the cells were treated with gradient concentrations of the compounds when the cells grew to 60–70%. At 48 h posttreatment, the medium was removed and MTT solution was added. After 4 h, the absorbance at 490 nm was measured with a microplate reader. The IC50 values were calculated by SPSS (Statistical Product and Service Solutions) software.

The test system of a further series is A549. Briefly: MTT in vitro cytotoxicity assay, A549. In kind it is cell-based. The settings on record: Homo sapiens, 48 h. The protocol:
as §1, §2

Another series concerns HeLa. Briefly: MTT in vitro cytotoxicity assay, HeLa. In kind it is cell-based. To be noted: Homo sapiens, 48 h. The protocol: as §1, §2
The test system of a further series is BEL-7402. Briefly: MTT in vitro cytotoxicity assay, BEL-7402. Type of series: cell-based. To be noted: Homo sapiens, 48 h. As to the method:
as §1, §2

Another series concerns LO2. Briefly: MTT in vitro cytotoxicity assay, normal cell line LO2. In kind it is cell-based. The settings on record: Homo sapiens, L02, 48 h. The protocol:
as §1, §2

Series [1] in a line: Partition coefficient by shake flask method. In kind it is physicochemical. To be noted: octanol / phosphate buffer (0.129 M NaCl, pH = 7.4). The protocol:
Partition coefficients of compounds in octanol and phosphate buffer (0.129 M NaCl, pH = 7.4) were measured as described by Owellen and coworkers. The concentrations of the compounds in the octanol and phosphate buffer phases were determined three times using a UV/Vis spectrophotometer. The partition coefficients were calculated from the ratio Coct/CPBS, where Coct and CPBS were the concentrations of the compound in the octanol and phosphate buffer, respectively.

Series [2] in a line: pKa by potentiometric titration. In kind it is physicochemical. The settings on record: aqueous dimethyl sulfoxide (30% DMSO), 30% dimethyl sulfoxide, 0.15 M KCl. As to the method:
The pKa values of the compounds were determined by potentiometric titration using a pH meter (Basic pH Meter PB-10, Sartorius) calibrated with standard buffers of pH 4.01, 6.86 and 9.18 [26]. The compounds were dissolved in aqueous dimethyl sulfoxide (30% dimethyl sulfoxide) at constant ionic strength (0.15 M KCl). The solution was pre-acidified to approximately pH = 2 with 0.24 M HCl, and titrated until pH = 12 with 0.06 M KOH.

The nature of series [3]: Stability in PBS by UV-Vis spectra. In kind it is physicochemical. The source says: The stability of 3b and 3c in PBS was studied by UV-Vis spectra.
Series [4] concerns SGC-7901 cells. Briefly: Cell cycle arrest by flow cytometry (PI). In kind it is cell-based, human. The settings on record: SGC-7901, IC50 concentrations, 24 h. As to the method: The cell cycle arrest was carried out using a method described in the literature. Briefly, SGC-7901 cells were treated with IC50 concentrations of compounds for 24 h. Then, the cells were harvested and fixed overnight in 70% ethanol at 4 °C. Next, the permeabilized cells were stained with PI/RNase buffer and the DNA content was determined on a flow cytometer. The results were analyzed by ModFit LT 4.0 (Verity Software House, Topsham, ME, USA).

Series [5] deals with SGC-7901 cells. The series can be described thus: Intracellular ROS levels (DCFH-DA). The settings on record: SGC-7901, IC50 concentrations, 24 h, versus control. In kind it is cell-based, human. As to the method: SGC-7901 cells were seeded in 12-well plate at a density of 1.5 × 10^5 cells per well for 24 h. Then, the medium was replaced with medium containing compounds for 24 h. After treatment, the medium was removed and washed three times with PBS, and the cells were stained with 20 μM DCFH-DA for 30 min in the dark. Finally, the cells were imaged under ImageXpress Mico XLS system (MD company, San Jose, CA, USA).

The test system of the next series is P38 MAPK. Briefly: Western blot of P38 MAPK expression. To be noted: SGC-7901, IC50 concentrations, 24 h. In kind it is cell-based, human. As to the method: SGC-7901 cells were seeded in six-well plates for 24 h and incubated with IC50 concentrations of the compounds in the presence of 10% fetal bovine serum (FBS). The cells were then harvested in lysis buffer. After sonication, the samples were centrifuged for 20 min at 13,000× g. The protein concentration of the supernatant was determined by BCA (bicinchoninic acid) assay. Sodium dodecyl sulfate–polyacrylamide gel electrophoresis was carried out with loading equal amounts of proteins per lane. The gels were then transferred to poly (vinylidene difluoride) membranes (Millipore, Billerica, MA, USA) and blocked with 5% nonfat milk in TBST (20 mM Tris-HCl, 150 mM NaCl, 0.05% Tween 20, pH 8.0, Tween: polyoxyethylene monolaurate sorbaitan) buffer for 3 h. The polyvinylidene difluoride membranes were washed four times with TBST (4 × 10 min) and incubated with primary antibody solution at 4 °C overnight. They were then washed four times with TBST for a total of 30 min. The secondary antibodies were then conjugated with horseradish peroxidase (1:5000 dilution) for 70 min at room temperature and washed four times with TBST. The blots were visualized with the Amersham ECL ([…]) and western blotting detection reagents according to the manufacturer’s instructions.

Series [6] has as its system SGC-7901 cells. The series can be described thus: Intracellular MDA assay. In kind it is cell-based, human. To be noted: SGC-7901, IC50 concentrations, 24 h. As to the method: (§3) After incubation with IC50 concentrations of 3b and 3c for 24 h, SGC-7901cells were lysed. The lysate was centrifuged for 15 min to collect the supernatant. The protein concentration was determined using a BCA Protein Assay Kit (Beyotime, Shanghai, China). A lipid peroxidation MDA assay kit (Beyotime, Shanghai, China) was used to detect MDA content, and a GSH and GSSG Assay Kit was used to detect intracellular GSH. SGC-7901 cells were incubated with IC50 concentrations of 3b and 3c for 24 h. Afterwards, the cells were lysed by the freeze-thaw method, and the lysate was centrifuged for 5 min to collect the supernatant. The absorbance was measured at 412 nm with a microplate reader.

Series [7] deals with SGC-7901 cells. Briefly: Intracellular GSH assay. To be noted: SGC-7901, IC50 concentrations, 24 h. In kind it is cell-based, human. The protocol: as §3
Series [8] deals with SGC-7901 cells. The series can be described thus: Mitochondrial membrane potential assay (JC-1). To be noted: SGC-7901, IC50 concentrations, 24 h; control 5.85. Type of series: cell-based, human. As to the method: SGC-7901 cells were treated with IC50 concentrations of the compounds in 12-well plates for 24 h and were washed three times with cold PBS. Then, the cells were stained with 1 μg/mL JC-1 for 30 min at 37 °C in the dark. After that, the cells were washed twice with ice-cold PBS to remove residual stain and imaged under the ImageXpress Micro XLS system (MD company, San Jose, CA, USA).

The test system of another series is CRT, HSP70 and HMGB1. Briefly: Immunostaining of CRT, HSP70 and HMGB1 (immunogenic cell death). In kind it is cell-based, human. The settings on record: SGC-7901, IC50 concentrations, 24 h. The protocol: The SGC-7901 cells were cultured in 12-well plates and treated with IC50 concentrations of 3b and 3c for 24 h. The cells were fixed with 75% alcohol, and then washed and incubated with immunostaining blocker for 1 h. The primary antibody CRT Antibody, HSP70 Antibody and HMGB1 antibody were incubated for 12 h and then the cells were washed three times with PBS. Next, the secondary antibody FITC-labeled Goat Anti-Rabbit IgG was incubated in darkness for 1 h. The cells were washed three times with PBS. Finally, the nuclei were stained with Hoechst and photographed under Micro XLS System (MD company, San Jose, CA, USA).

In series [9] the test system is SGC-7901 cells. The series can be described thus: ATP measurement. In kind it is cell-based, human. The settings on record: SGC-7901, IC50 concentrations, 24 h. As to the method:
The SGC-7901 cells were cultured in six-well plates and treated with IC50 concentrations of 3b and 3c for 24 h. The cells were lysed for 10 min and centrifuged to obtain the supernatant. The prepared ATP detection working solution was added into the supernatant, 5 min late, the RLU value was measured.

Series [10] has as its system SGC-7901 cells. The series can be described thus: Intracellular Ca2+ levels (Fluo-3AM). Type of series: cell-based, human. To be noted: SGC-7901, IC50 concentrations, 24 h, versus control. As to the method:
Fluo-3AM, a Ca^2+-sensitive fluorescent probe, was used to detect the level of intracellular Ca^2+. SGC-7901 cells were incubated with IC50 concentrations of the compounds for 24 h at 37 °C. Then, the cells were washed three times with PBS, incubated with Fluo-3AM, and observed under an ImageXpress Micro XLS system (MD company, San Jose, CA, USA). The fluorescence intensity was analyzed under a high content analysis system.

The subject of series [11] is calf thymus DNA (CT-DNA). The series can be described thus: EB-competitive binding, luminescence titration. The settings on record: EB-CT-DNA (DNA:EB = 1.25:1), compounds 6.62–50 μM. As to the method: We used ethidium bromide (EB)-competing binding experiments to investigate the binding mode between the compounds and CT-DNA. It is well known that EB combines DNA molecules through a classic intercalative mode. Maintaining the DNA-EB solution concentration (DNA:EB = 1.25:1) and varying the concentrations of compounds (6.62–50 μM), the spectra were recorded after 5 min. The Stern-Volmer constants (Ksv) were calculated using the following Equation (3):F0/F = 1 + Ksv [Q](3) where F0 and F were the fluorescence intensities of the EB-CT DNA solution at 550–700 nm in the absence and presence of the compounds, respectively. [Q] was the concentration of compounds. In plots of F0/F versus [Q], Ksv was given by the ratio of the slope to the intercept.

Series [12] concerns calf thymus DNA (CT-DNA). The series can be described thus: Viscosity experiments with CT-DNA. The settings on record: 25 (±0.1) °C, [DNA] = 200 μM, compounds 0 to 90 μM. In kind it is binding. As to the method: An ubberhold viscometer was used to measure the viscosity of the CT-DNA solution in the absence and presence of compounds, and the temperature was maintained at 25 ± 0.1 °C. The concentration of CT-DNA was 200 μM, and the concentrations of the compounds varied from 0 to 90 μM. The flow times were recorded with a digital stopwatch; each sample was measured three times to get the average time.

In series [13] the test system is SGC-7901 cells. The series can be described thus: Cellular uptake (DAPI, fluorescence microscope). In kind it is cell-based, human. The settings on record: SGC-7901, IC50 concentrations, 24 h. As to the method: Cellular uptake studies were performed according to a method described in the literature. SGC-7901 cells were placed in 24-well microassay culture plates and grown overnight at 37 in a 5% CO2 incubator. The compounds tested were then added to the wells. […] Upon completion of incubation, the wells were washed three times with phosphate buffered saline (PBS). After moving the culture medium, the cells were stained with 2-(4-amidinophenyl)-6-indolecarbamidine dihydrochloride (DAPI) and observed under fluorescence microscope.

For `COC(=O)c1ccc2c(ccc3oc4cccc(CCC(=O)O)c4c(=O)c32)c1` [Compound 3b, 3-(3-methoxycarbonyl-12-oxo-12H-benzo[a]xanthen-11-yl)propanoic acid], the IC50 in the series on SGC-7901 was 45.6 ± 6.5 µM; with A549, 51.5 ± 13.7 µM; in the series on HeLa, 68 ± 9.28 µM; with BEL-7402 it was more than 100 µM; in the series with LO2, 38.1 ± 0.41 µM. For the same molecule, the logP in series [1] stood at 0.822. The molecule also displayed a pKa in series [2] of 7.48. Further, the “stability in PBS” value in series [3] (UV-Vis spectra at 0 and 48 h) is reported as “stable in PBS”. Moreover, the “solubility in PBS” value in [3] (precipitate observed at 48 h) was “low solubility in PBS”. Besides, in the series on SGC-7901 cells [4], the “Percentage in the cell G0/G1” value is 74.6%. The “Percentage in the cell G2/M” value with SGC-7901 cells [4] worked out at 17.4%. In the series with SGC-7901 cells [4] (versus control), the “increase in the cell at G0/G1 phase” value came to 17.7%. The “increase of DCF fluorescence intensity” value in the series with SGC-7901 cells [5] was “about 60.5%”. Besides, in the series on P38 MAPK, the “P38 MAPK expression” value is recorded as “significantly upregulated”. For the same molecule, in the series with SGC-7901 cells [6], the MDA stood at 5.58 nmol/mg. Further, the GSH concentration in the series on SGC-7901 cells [7] was 69.96 µM. In addition, the “ratio of red/green fluorescence (R), JC-1” value with SGC-7901 cells [8] is recorded as 3.01. The “expression of CRT, HSP70 and HMGB1” value with CRT, HSP70 and HMGB1 was “increased”. For the same molecule, the ATP concentration in the series with SGC-7901 cells [9] turned out to be 3.30 µM. In addition, in the series with SGC-7901 cells [10], the “increase of Flu-3-AM fluorescence intensity (intracellular Ca2+)” value was 1.67 times. The “Stern-Volmer constant (Ksv)” value in the series on calf thymus DNA (CT-DNA) [11] was 2.20 (±0.12) × 10^3 M^−1. Moreover, in the series with calf thymus DNA (CT-DNA) [12], the “relative viscosity of CT-DNA with increasing compound concentration” value is reported as “increased”. Further, the cellular uptake result in the series with SGC-7901 cells [13] was “enter the cytoplasm and accumulate in the nuclei”.
With `O=C(O)CCc1cccc2oc3ccc4ccccc4c3c(=O)c12` [Compound 3a, 3-(12-oxo-12H-benzo[a]xanthen-11-yl)propanoic acid], the IC50 in the series on SGC-7901, with A549, with HeLa, in the series on BEL-7402 and with LO2 was more than 100 µM in each case.

The record behind these values is publication PMC8949258, “Synthesis, Characterization and Anticancer Efficacy Evaluation of Benzoxanthone Compounds toward Gastric Cancer SGC-7901” (Molecules, 2022).
